Where two headings read alike, the source gives them in different places.
Experiments:
[1] = molecular target: T1, human TRPV4 (hTRPV4/CHO cells) (Homo sapiens, UniProt Q9HBA0); test: Test Example 4: TRPV4 inhibitory activity (Ki value), 4α-PDD stimulation, Fluo-3 calcium fluorescence (FDSS 3000); assay type: cell-based
T1 construct: expressed in transfected cells; host or cells: CHO-K1
Procedure: TRPV4 Inhibitory Activity (Ki Value)
For each compound, TRPV4 inhibitory activity was measured using cells.
(Method) The procedures of evaluating TRPV4 inhibitory activity of a compound are as follows.
(1) TRPV4 inhibitory activity was measured using CHO-K1 cells stably expressing human TRPV4 (hTRPV4/CHO cells).
(2) Cells were subcultured using the MEM-α medium (SIGMA M4526: 500 ml), FBS (HyCloneSH30070.03: 10%), L-Glutamine 200 mmol/L (GIBCO: 4 mmol/L), P/S (nacalai tesque: 1%), G418 (nacalai tesque: 1 mg/mL).
(3) The 96-well plates which hTRPV4/CHO cells were seeded at densities of 2×10^4 cells/well in the culture medium in the day before the experimental day, and cultured in a CO2 incubator in the presence of 5% CO2 at 37° C. for 24 hours was used as assay plates.
(4) Cells were washed with assay buffer (Hank's Balanced Salt Solution 9.8 g, 1 mol/L HEPES (pH7.5), 250 mmol/L probenecid).
(5) Fluo-3, fluorescent dye for Ca influx assay was added to each well, then the assay plate was incubated in a CO2 incubator in the presence of 5% CO2 at 37° C. for one hour (final conc.; 5 μmol/L Fluo-3).
(6) The assay plate was washed with the assay buffer, and the buffer was remained at 30 μL/well. Then the assay plate was incubated for 10 min at 37° C.
(7) 20 μL of diluted compound solution was added to each well of assay plate, and mixed with built-in Pipette and Mixer of the fluorescence analysis system FDSS 3000 (Hamamatsu Photonics).
(8) 50 μL of 4α-PDD solution (concluding 0.1% Pluronic F-127) was applied to each well of assay plate and mixed.
(9) The fluorescent intensity was measured by FDSS 3000 for 8 min from the point of time addition the compound solution, at Ex 480 nm, Em 540 nm wavelength.
TRPV4 inhibitory activity (Ki value) of a compound was calculated according to the following procedure.
(10) In the presence of the compound, the difference between maximal and minimal of fluorescent intensity value for 8 min from just before addition of 4α-PDD solution was calculated, and it was referred as Max-Min value. Max-Min value of the Ruthenium Red at 10 μM was defined as 100% inhibitory activity, Max-Min value in the absence of the compound was defined as 0% inhibitory activity. TRPV4 inhibitory activity of the compound was calculated by the following formula.
(1−(Max−Min value of the compound−100% inhibitory activity)/(0% inhibitory activity−100% inhibitory activity))×100
(11) By the following formula, inhibitory activity was calculated at 10 points with three fold serial dilution, in the final concentration of the compound from 10 μmol/L to 0.5 nmol/L. The IC50 value was calculated by dose-response curve.
100−[(fluorescent intensity in the presence of the compound−fluorescent intensity of back ground)/(total fluorescent intensity−fluorescent intensity of back ground)]×100
(12) In the presence of the compound, activity of 4α-PDD was measured at 9 points with three fold serial dilution from 20 μmol/L. Activity of 4α-PDD was calculated by the following formula.
(Max−Min value of the each 4α-PDD concentration−0% activity)/(100% activity−0% activity))×100
(13) Effective activity was calculated in 4α-PDD the above. The EC50 value was calculated by dose-response curve.
(14) The Ki value of a compound was calculated by the following formula.
Ki=IC50 value/1+([A]/EC50)
[A]: Concentration of agonist (nmol/L)

[2] = molecular target: T1, human TRPV4 (hTRPV4/CHO cells); test: Test Example 1: TRPV4 inhibitory activity (IC50 value), 4α-PDD stimulation, Fluo4 calcium fluorescence (FLIPR TETRA); assay type: cell-based; conditions: Test Example 1, 4α-PDD stimulation, read-out: Test 1 IC50
[3] = Test Example 4, 4α-PDD stimulation, read-out: Test 4 Ki

T1 sequence (Q9HBA0 whole entry): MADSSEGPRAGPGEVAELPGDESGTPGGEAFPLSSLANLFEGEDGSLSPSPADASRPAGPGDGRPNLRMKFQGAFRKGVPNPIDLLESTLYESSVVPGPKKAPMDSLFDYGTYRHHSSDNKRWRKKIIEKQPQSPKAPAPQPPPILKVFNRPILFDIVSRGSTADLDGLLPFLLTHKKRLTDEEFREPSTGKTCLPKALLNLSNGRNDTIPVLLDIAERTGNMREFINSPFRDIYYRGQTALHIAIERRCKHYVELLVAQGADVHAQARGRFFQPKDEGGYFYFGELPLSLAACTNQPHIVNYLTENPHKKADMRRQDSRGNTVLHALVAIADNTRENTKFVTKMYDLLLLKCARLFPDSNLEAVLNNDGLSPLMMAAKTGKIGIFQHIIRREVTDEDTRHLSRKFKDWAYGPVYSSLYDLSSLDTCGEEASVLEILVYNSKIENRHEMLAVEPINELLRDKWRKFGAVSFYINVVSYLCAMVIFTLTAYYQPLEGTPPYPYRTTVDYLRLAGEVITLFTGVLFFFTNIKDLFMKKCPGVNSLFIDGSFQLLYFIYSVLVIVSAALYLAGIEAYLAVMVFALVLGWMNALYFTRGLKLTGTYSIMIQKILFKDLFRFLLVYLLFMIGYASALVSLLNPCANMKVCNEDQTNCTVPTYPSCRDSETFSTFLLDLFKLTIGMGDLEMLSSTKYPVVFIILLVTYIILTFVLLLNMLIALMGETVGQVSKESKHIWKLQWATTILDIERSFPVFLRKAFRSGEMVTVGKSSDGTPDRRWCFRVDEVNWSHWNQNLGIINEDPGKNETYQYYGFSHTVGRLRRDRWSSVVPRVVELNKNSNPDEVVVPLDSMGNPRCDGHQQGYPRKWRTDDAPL

| Ki [1, 3] [nM] | IC50 [2] [nM] | Ki ([1]; 4α-PDD, Fluo-3, Ki calculated from IC50 and EC50 of 4α-PDD, read-out: TRPV4 inhibitory activity (Ki value)) [nM] | SMILES |
| --- | --- | --- | --- |
| < 100 |  |  | CCCCCCCC(=O)Nc1nc(-c2sc(C)nc2C)cs1 [Compound I-221] |
| < 100 |  |  | CCCCCC(=O)Nc1nc(-c2sc(C)nc2C)cs1 [Compound I-222] |
| 100 to 1000 | 100 to 1000 |  | Cc1nc(C)c(-c2csc(NC(=O)C3CCCCC3)n2)s1 [Compound I-223] |
| < 100 | 100 to 1000 |  | Cc1nc(C)c(-c2csc(NC(=O)C3CCCC3)n2)s1 [Compound I-224] |
| < 100 | < 100 |  | Cc1nc(C)c(-c2csc(NC(=O)Cc3ccc(Br)cc3)n2)s1 [Compound I-225] |
| 100 to 1000 |  |  | Cc1nc(C)c(-c2csc(NC(=O)c3ccc(Cl)cc3)n2)s1 [Compound I-227] |
| 100 to 1000 |  |  | Cc1nc(C)c(-c2csc(NC(=O)CCc3ccccc3)n2)s1 [Compound I-228] |
| < 100 |  |  | Cc1nc(C)c(-c2csc(NC(=O)COc3ccc(Cl)cc3)n2)s1 [Compound I-229] |
| < 100 |  |  | Cc1nc(C)c(-c2csc(NC(=O)Cc3ccc(Cl)cc3)n2)s1 [Compound I-230] |
| 100 to 1000 |  |  | Cc1nc(C)c(-c2csc(NC(=O)Cc3ccc(Br)cc3)n2)o1 [Compound I-231] |
| 100 to 1000 |  |  | Cc1nc(C)c(-c2csc(NC(=O)c3ccc(Br)cc3)n2)s1 [Compound I-232] |
| 1000 to 3000 |  |  | Cc1nc(C)c(-c2csc(NC(=O)Nc3ccc(Br)cc3)n2)s1 [Compound I-233] |
| 1000 to 3000 |  |  | Cc1nc(C)c(-c2csc(NC(=O)c3ccccc3)n2)s1 [Compound I-234] |
| 100 to 1000 |  |  | O=C(Nc1nc(-c2sc(Cl)nc2Cl)cs1)C1CCC(F)(F)C1 (centres unmarked) [Compound I-535] |
| 100 to 1000 |  |  | CC(=O)c1ccc(Nc2nc(-c3sc(C)nc3C)cs2)cc1 [II-25] |
| 100 to 1000 |  |  | Cc1nc(C)c(-c2csc(Nc3ccc(Cl)cc3)n2)s1 [II-26] |
| 100 to 1000 |  |  | Cc1nc(C)c(-c2csc(Nc3ccc(F)cc3)n2)s1 [II-27] |
| 100 to 1000 |  |  | Cc1nc(C)c(-c2csc(Nc3ccc(N(C)C)cc3)n2)s1 [II-28] |
| 100 to 1000 |  |  | COc1ccc(Nc2nc(-c3sc(C)nc3C)cs2)cc1 [II-29] |
| 100 to 1000 |  |  | Cc1nc(C)c(-c2csc(Nc3ccccc3)n2)s1 [II-30] |

Continued, molecule first:

| SMILES | Ki [1, 3] [nM] | IC50 [2] [nM] | Ki ([1]; 4α-PDD, Fluo-3, Ki calculated from IC50 and EC50 of 4α-PDD, read-out: TRPV4 inhibitory activity (Ki value)) [nM] |
| --- | --- | --- | --- |
| Cc1nc(C)c(-c2csc(NC(=O)C3(c4ccc(Cl)cc4)CC3)n2)s1 [Compound I-2] | 100 to 1000 | 100 to 1000 |  |
| Cc1nc(C)c(-c2csc(NC(=O)C(C)(C)c3ccc(Cl)cc3)n2)s1 [Compound I-3] | 100 to 1000 | 100 to 1000 |  |
| Cc1nc(C)c(-c2csc(NC(=O)C(C)c3ccc(Cl)cc3)n2)s1 (centres unmarked) [Compound I-4] | < 100 | < 100 |  |
| Cc1ncsc1-c1csc(NC(=O)Cc2ccc(Br)cc2)n1 [Compound I-13] | 100 to 1000 | < 100 |  |
| Cc1ncc(-c2csc(NC(=O)Cc3ccc(Br)cc3)n2)s1 [Compound I-14] | < 100 | < 100 |  |
| Cc1nc(C)c(-c2csc(NC(=O)Cc3ccc(C(F)(F)F)cc3)n2)s1 [Compound I-19] | < 100 | < 100 |  |
| Cc1nc(C)c(-c2csc(NC(=O)Cc3ccc(C(F)(F)F)c(F)c3)n2)s1 [Compound I-20] | < 100 |  | 34.4 |
| Cc1nc(C)c(-c2csc(NC(=O)Cc3ccc(OC(F)(F)F)cc3)n2)s1 [Compound I-21] | < 100 |  |  |
| Cc1nc(C)c(-c2csc(NC(=O)Cc3ccc(SC(F)(F)F)cc3)n2)s1 [Compound I-22] | < 100 |  |  |
| Cc1nc(C)c(-c2csc(NC(=O)C3CC3)n2)s1 [Compound I-23] | < 100 | 100 to 1000 |  |
| Cc1nc(C)c(-c2csc(NC(=O)c3ccc(S(=O)(=O)C(F)(F)F)cc3)n2)s1 [Compound I-24] | 100 to 1000 | 100 to 1000 |  |
| C=C(C)c1ncc(-c2csc(NC(=O)Cc3ccc(S(=O)(=O)C(F)(F)F)cc3)n2)s1 [Compound I-25] | 100 to 1000 |  |  |
| Cc1nc(C)c(-c2csc(NC(=O)C3(O)CC3)n2)s1 [Compound I-26] | 100 to 1000 |  |  |
| Cc1nc(C)c(-c2csc(NC(=O)C3CC3(F)F)n2)s1 (centres unmarked) [Compound I-27] | < 100 | 100 to 1000 |  |
| Cc1nc(C)c(-c2csc(NC(=O)C3(C)CC3)n2)s1 [Compound I-28] | 100 to 1000 |  |  |
| Cc1nc(C(F)F)sc1-c1csc(NC(=O)Cc2ccc(S(=O)(=O)C(F)(F)F)cc2)n1 [Compound I-29] | 100 to 1000 | 100 to 1000 |  |
| Cc1nc(CF)sc1-c1csc(NC(=O)Cc2ccc(S(=O)(=O)C(F)(F)F)cc2)n1 [Compound I-31] | < 100 | < 100 |  |
| Cc1nc(C)c(-c2csc(NC(=O)C(C)C)n2)s1 [Compound I-32] | < 100 | 100 to 1000 |  |
| Cc1nc(C)c(-c2csc(NC(=O)CC3CC3)n2)s1 [Compound I-33] | 100 to 1000 |  |  |
| Cc1nc(C)c(-c2csc(NC(=O)C3CC(F)(F)C3)n2)s1 [Compound I-34] | < 100 | 100 to 1000 |  |
| Cc1nc(C)c(-c2csc(NC(=O)Cc3ccc(CS(=O)(=O)C(F)(F)F)cc3)n2)s1 [Compound I-35] | < 100 | < 100 |  |

| SMILES | Ki [1, 3] [nM] | IC50 [2] [nM] | Ki ([1]; 4α-PDD, Fluo-3, Ki calculated from IC50 and EC50 of 4α-PDD, read-out: TRPV4 inhibitory activity (Ki value)) [nM] |
| --- | --- | --- | --- |
| Cc1nc(C)c(-c2csc(NC(=O)Cc3ccc(S(=O)(=O)C(F)F)cc3)n2)s1 [Compound I-36] | < 100 | < 100 |  |
| Cc1nc(C)c(-c2csc(NC(=O)CCC(F)(F)F)n2)s1 [Compound I-38] | < 100 |  |  |
| Cc1nc(C)c(-c2csc(NC(=O)CC#N)n2)s1 [Compound I-40] | 100 to 1000 |  |  |
| Cc1nc(C)c(-c2csc(NC(=O)CCS(=O)(=O)c3ccccc3)n2)s1 [Compound I-41] | 100 to 1000 |  |  |
| Cc1nc(C)c(-c2csc(NC(=O)C3Cc4ccccc4C3)n2)s1 [Compound I-43] | < 100 | < 100 |  |
| Cc1nc(C)c(-c2csc(NC(=O)Cc3c[nH]c4ccccc34)n2)s1 [Compound I-44] | 100 to 1000 |  |  |
| Cc1nc(C)c(-c2csc(NC(=O)CC(F)(F)F)n2)s1 [Compound I-45] | 100 to 1000 |  |  |
| Cc1nc(C)c(-c2csc(NC(=O)C3CCN(c4ccccc4)C3)n2)s1 (centres unmarked) [Compound I-46] | < 100 | < 100 |  |
| Cc1nc(C)c(-c2csc(NC(=O)C3CC(=O)N(Cc4ccccc4)C3)n2)s1 (centres unmarked) [Compound I-47] | 100 to 1000 | 1000 to 8000 |  |
| Cc1nc(C)c(-c2csc(NC(=O)Cc3ccc(Cl)c(F)c3)n2)s1 [Compound I-48] | < 100 |  |  |
| Cc1nc(C)c(-c2csc(NC(=O)Cc3ccc(F)c(Cl)c3)n2)s1 [Compound I-49] | < 100 | < 100 |  |
| Cc1nc(C)c(-c2csc(NC(=O)Cn3cc(Cl)cn3)n2)s1 [Compound I-50] | < 100 | 100 to 1000 |  |
| Cc1nc(C)c(-c2csc(NC(=O)CC3CCS(=O)(=O)C3)n2)s1 (centres unmarked) [Compound I-51] | 1000 to 3000 |  |  |
| Cc1nc(C)c(-c2csc(NC(=O)Cc3cc(F)cc(F)c3)n2)s1 [Compound I-52] | < 100 |  |  |
| Cc1nc(C)c(-c2csc(NC(=O)CC3CC(F)(F)C3(F)F)n2)s1 (centres unmarked) [Compound I-53] | 100 to 1000 | 100 to 1000 |  |
| Cc1nc(C)c(-c2csc(NC(=O)CC3CCC3)n2)s1 [Compound I-54] | < 100 |  |  |
| Cc1nc(C)c(-c2csc(NC(=O)Cc3c(F)cccc3F)n2)o1 [Compound I-58] | < 100 |  |  |
| Cc1nc(C)c(-c2csc(NC(=O)N(C)c3ccc(Br)cc3)n2)s1 [Compound I-59] | 100 to 1000 | 100 to 1000 |  |
| Cc1nc(C)c(-c2csc(NC(=O)Cc3ccc(S(=O)(=O)C(F)(F)F)cc3)n2)s1 [Compound I-186] | < 100 | < 100 |  |
| CCCC(=O)Nc1nc(-c2sc(C)nc2C)cs1 [Compound I-219] | 100 to 1000 |  |  |
| CCCCCCCCCCCC(=O)Nc1nc(-c2sc(C)nc2C)cs1 [Compound I-220] | 100 to 1000 |  |  |

Reference: patent US20170066759A1, “AROMATIC 5-MEMBERED HETEROCYCLIC DERIVATIVE HAVING TRPV4-INHIBITING ACTIVITY” (Shionogi & Co., Ltd., priority 2012, published 2017)
